Laboratory results taken from patent US20080207725A1, “Phenyl-Pyrazole Derivatives as Non-Steroidal Glucocorticoid Receptor Ligands” (Glaxo Group Limited, a corporation, priority 2005, published 2008).

System: NFkB activity
Assay: Glucocorticoid mediated transrepression of NFkB activity (A549 ELAM promoter SPAP reporter, TNFα stimulated)
Format: cell-based
Details: Human A549 lung epithelial cells, 3 ng/ml human recombinant TNFα, 16 hours; read-out: pEC50, transrepression of NFkB activity (converted)
From the text: Human A549 lung epithelial cells were engineered to contain a secreted placental alkaline phosphatase gene under the control of the distal region of the NFkB dependent ELAM promoter as previously described in Ray, K. P., Farrow, S., Daly, M., Talabot, F. and Searle, N. “Induction of the E-selectin promoter by interleukin 1 and tumour necrosis factor alpha, and inhibition by glucocorticoids” Biochemical Journal (1997) 328: 707-15.
Compounds were solvated and diluted in DMSO, and transferred directly into assay plates such that the final concentration of DMSO was 0.7%. Following the addition of cells (40K per well), plates were incubated for 1 hour prior to the addition of 3 ng/ml human recombinant TNFα. Following continued incubation for 16 hours, alkaline phosphatase activity was determined by measuring the change in optical density at 405 nm with time following the addition of 0.7 volumes of assay buffer (1 mg/ml p-nitrophenylphosphate dissolved in 1M diethanolamine, 0.28M NaCl, 0.5 mM MgCl2). Dose response curves were constructed from which EC50 values were estimated.

Row | EC50 [nM] | Structure (SMILES)
1 | < 3.16 | COc1ccc(F)cc1C(C)(C)C[C@@](O)(CNC(=O)c1cnn(-c2ccc(F)cc2)c1N)C(F)(F)F [Example 2, (2R)-5-Amino-N-[4-[5-fluoro-2-(methyloxy)phenyl]-2-hydroxy-4-methyl-2-(trifluoromethyl)pentyl]-1-(4-fluorophenyl)-1H-pyrazole-4-carboxamide]
2 | < 3.16 | CC(C)(C[C@@](O)(CNC(=O)c1cnn(-c2ccccc2)c1N)C(F)(F)F)c1cc(F)ccc1O [Example 11, (2R)-5-Amino-N-[4-(5-fluoro-2-hydroxyphenyl)-2-hydroxy-4-methyl-2-(trifluoromethyl)pentyl]-1-phenyl-1H-pyrazole-4-carboxamide]
3 | < 3.16 | CC(C)(C[C@@](O)(CNC(=O)c1cnn(-c2ccc(Cl)cc2)c1N)C(F)(F)F)c1cc(F)ccc1O [Example 10, (2R)-5-Amino-1-(4-chlorophenyl)-N-[4-(5-fluoro-2-hydroxyphenyl)-2-hydroxy-4-methyl-2-(trifluoromethyl)pentyl]-1H-pyrazole-4-carboxamide]
4 | < 3.16 | CC(C)(C[C@@](O)(CNC(=O)c1cnn(-c2ccc(F)cc2)c1N)C(F)(F)F)c1cc(F)ccc1O [Example 7, (2R)-5-Amino-N-[4-(5-fluoro-2-hydroxyphenyl)-2-hydroxy-4-methyl-2-(trifluoromethyl)pentyl]-1-(4-fluorophenyl)-1H-pyrazole-4-carboxamide]
5 | < 3.16 | CC(C)(C[C@@](O)(CNC(=O)c1cnn(-c2ccc(F)cc2F)c1N)C(F)(F)F)c1cc(F)ccc1O [Example 9, (2R)-5-Amino-1-(2,4-difluorophenyl)-N-[4-(5-fluoro-2-hydroxyphenyl)-2-hydroxy-4-methyl-2-(trifluoromethyl)pentyl]-1H-pyrazole-4-carboxamide]

Continued, compound first:

Row | Structure (SMILES) | EC50 [nM]
6 | CC(C)(C[C@@](O)(CNC(=O)c1cnn(-c2ccc(Cl)cc2)c1N)C(F)(F)F)c1cccc2c1OCC2 [Example 15, (2R)-5-Amino-1-(4-chlorophenyl)-N-[4-(2,3-dihydro-1-benzofuran-7-yl)-2-hydroxy-4-methyl-2-(trifluoromethyl)Pentyl]-1H-pyrazole-4-carboxamide] | < 3.16
7 | CC(C)(C[C@@](O)(CNC(=O)c1cnn(-c2ccccc2F)c1N)C(F)(F)F)c1cccc2c1OCC2 [Example 12, (2R)-5-Amino-N-[4-(2,3-dihydro-1-benzofuran-7-yl)-2-hydroxy-4-methyl-2-(trifluoromethyl)pentyl]-1-(2-fluorophenyl)-1H-pyrazole-4-carboxamide] | < 3.16
8 | CC(C)(C[C@@](O)(CNC(=O)c1cnn(-c2ccccc2F)c1N)C(F)(F)F)c1cc(F)ccc1O [Example 8, (2R)-5-Amino-N-[4-(5-fluoro-2-hydroxyphenyl)-2-hydroxy-4-methyl-2-(trifluoromethyl)pentyl]-1-(2-fluorophenyl)-1H-pyrazole-4-carboxamide] | < 3.16
9 | COc1ccc(F)cc1C(C)(C)C[C@@](O)(CNC(=O)c1cnn(-c2ccc(Cl)cc2)c1N)C(F)(F)F [Example 5, (2R)-5-Amino-1-(4-chlorophenyl)-N-[4-[5-fluoro-2-(methyloxy)phenyl]-2-hydroxy-4-methyl-2-(trifluoromethyl)pentyl]-1H-pyrazole-4-carboxamide] | < 3.16
10 | COc1ccc(F)cc1C(C)(C)C[C@@](O)(CNC(=O)c1cnn(-c2ccccc2F)c1N)C(F)(F)F [Example 3, (2R)-5-Amino-N-[4-[5-fluoro-2-(methyloxy)phenyl]-2-hydroxy-4-methyl-2-(trifluoromethyl)pentyl]-1-(2-fluorophenyl)-1H-pyrazole-4-carboxamide] | < 3.16
11 | COc1ccc(F)cc1C(C)(C)C[C@@](O)(CNC(=O)c1cnn(-c2ccccc2)c1N)C(F)(F)F [Example 6, (2R)-5-Amino-N-[4-[5-fluoro-2-(methyloxy)phenyl]-2-hydroxy-4-methyl-2-(trifluoromethyl)pentyl]-1-phenyl-1H-pyrazole-4-carboxamide] | < 3.16
12 | COc1ccc(F)cc1C(C)(C)C[C@@](O)(CNC(=O)c1cnn(-c2ccc(F)cc2F)c1N)C(F)(F)F [Example 4, (2R)-5-Amino-1-(2,4-difluorophenyl)-N-[4-[5-fluoro-2-(methyloxy)phenyl]-2-hydroxy-4-methyl-2-(trifluoromethyl)pentyl]-1H-pyrazole-4-carboxamide] | < 3.16
13 | CC(C)(C[C@@](O)(CNC(=O)c1cnn(-c2ccc(F)cc2F)c1N)C(F)(F)F)c1cccc2c1OCC2 [Example 14, (2R)-5-Amino-1-(2,4-difluorophenyl)-N-[4-(2,3-dihydro-1-benzofuran-7-yl)-2-hydroxy-4-methyl-2-(trifluoromethyl)pentyl]-1H-pyrazole-4-carboxamide] | < 3.16
14 | CC(C)(C[C@@](O)(CNC(=O)c1cnn(-c2ccccc2)c1N)C(F)(F)F)c1cccc2c1OCC2 [Example 1, (2R)-5-Amino-N-[4-(2,3-dihydro-1-benzofuran-7-yl)-2-hydroxy-4-methyl-2-(trifluoromethyl)pentyl]-1-phenyl-1H-pyrazole-4-carboxamide] | < 3.16
15 | CC(C)(C[C@@](O)(CNC(=O)c1cnn(-c2ccc(F)cc2)c1N)C(F)(F)F)c1cccc2c1OCC2 [Example 13, (2R)-5-Amino-N-[4-(2,3-dihydro-1-benzofuran-7-yl)-2-hydroxy-4-methyl-2-(trifluoromethyl)pentyl]-1-(4-fluorophenyl)-1H-pyrazole-4-carboxamide] | < 3.16
